{
  "source": "patent US20220313626A1",
  "about": "“SMALL MOLECULE INHIBITORS FOR TREATING CANCER IN A SUBJECT HAVING TUMORS WITH HIGH INTERSTITIAL PRESSURE” (GUANGZHOU MAXINOVEL PHARMACEUTICALS CO., LTD., priority 2019, published 2022)",
  "test_system": "MC-38-hPD-L1 tumor cells",
  "assay": "Anti-tumor efficacy in MC-38-hPD-L1 models",
  "assay_type": "in vivo",
  "details": "MC-38-hPD-L1, C57BL/6-hPD-1 mice; 20 mg/kg, IP, BIW; 19 days",
  "protocol": "Materials required for the experiment: Antibody: PD-L1 antibody Durvalumab, Product specifications: 120 mg/2.4 mL(50 mg/mL), Lot No.: 041E17C, Manufacture: AstraZeneca, purchased from Hongkong Mingchuang Medical Limited, storage at 2-8° C. Experimental animal: 120 C57BL/6-hPD-1 mice, female, 6˜8 weeks old, 18˜21 g, purchased from Jiangsu Gem Pharmatech Co. Ltd. Formulation material: castor oil (Cremophor RH40), CAS No.: 61788-85-0, Lot No.: 29761847G0, purchased from Shanghai Xietai Chemical Co. Ltd.; β-cyclodextrin (SBE-β-CD), CAS No.: 128446-35-5, Lot No.: R1804474, purchased from Shanghai Shaoyuan Chemical Co. Ltd.; DMEM culture medium, CAS No.: 11995-065, Lot No.: 2025378, purchased from Gibco Co. Ltd.; PBS, Art. No.: SH30256.01, Lot No.: AB10141338, purchased from HyClone Co. Ltd.; Fetal bovine serum: CAS No.: 10099-141, Lot No.: 1966174C, purchased from Gibco Co. Ltd.; hygromycinB: CAS No.: 10687010, Lot No.: HY069-L12 purchased from Invitrogen.\nCell culture: The MC-38 tumor cells (NCI) were maintained in vitro as a monolayer culture in DMEM medium supplemented with 10% heat inactivated fetal bovine serum, 100 μg/mL hygromycinB at 37° C. in an atmosphere of 5% CO2 in air. The tumor cells were routinely subcultured three times weekly by trypsin-EDTA treatment. The cells growing to a confluency around 70%-80% were harvested and counted for tumor inoculation.\nTumor cell inoculation and group administration: The 100 uL cell suspension containing 1×10^6 MC-38-hPD-L1 tumor cells (cells suspended in base DMEM medium) was inoculated into right dorsal subcutaneous area in mice. 6 days after inoculation, 60 tumor-bearing mice with transplanted tumors ranging from 31.49 mm^3 to 110.26 mm^3 were selected, stratified randomization was used to group and start the administration on the day of grouping.\nPreparation of test substances: Preparation of formulation: 800 mL of sterile water was added into the volumetric flask with magnetic stirring to have a vortex. 100 g of castor oil (Cremophor RH40) was added with a spoon slowly into the vortex and the solution was kept stirring. 200 g of β-cyclodextrin (SBE-β-CD) was added while the solution was kept stirring until the solution was clear, and the total volume was set to 1000 mL, which contained 10% (w/v) Cremophor RH40+20% (w/v) an aqueous solution of SBE-β-CD.\nPreparation of Compound Suspension: 150.92 mg compound was weighed and 12.5 mL 10% (w/v) Cremophor RH40+20% (w/v) SBE-β-CD aqueous solution were added. The suspension solution with a concentration of 12.0 mg/mL was obtained by vortex for 2 minutes and ultrasound for 30 minutes. 5.0 mL of the compound suspension solution with concentration of 12.0 mg/mL was pipetted and 5.0 mL aqueous formulation solution was added. The suspension solution with a concentration of 6.0 mg/mL was obtained by vortex for 1 minute and sonicated by ultrasound for 5 minutes. 2.0 mL of the compound suspension solution with concentration of 6.0 mg/mL was pipetted and […] was added. The suspension solution with a concentration of 3.0 mg/mL was obtained by vortex for 1 minute and sonicated by ultrasound for 5 minutes. Compound suspension solution was prepared once a day.\nPreparation of hPD-L1 antibody: 0.12 mL PD-L1 antibody Durvalumab (50 mg/mL) original solution was pipetted and divided into […] in 5 mL sterile centrifugal tube, which were packed with each containing 6.0 mg. They were stored in refrigerator at 4° C. Before administration, a raw solution containing 0.12 mL and 50 mg/mL was taken, and 2.88 mL 0.9% sodium chloride solution was added to make the solution thoroughly mixed. 3 mL Duvalumab solution with the concentration 2 mg/mL was obtained.\nProcedure: The mice in the vehicle group were weighed and recorded in the electronic balance according to their numbers. […]",
  "data": [
    {"substance": "Durvalumab [reference compound]", "values": [
      {"measurement": "TGI", "result": 48.17, "unit": "%"},
      {"measurement": "Tumor Volume", "result": "341.19 ± 56.59", "unit": "mm^3"}
    ]}
  ]
}
